pIC50: −log10 of the molar value.
What was measured:
IRAK4 kinase = target: T1, IRAK4 kinase (Homo sapiens, UniProt Q9NWZ3); test: IRAK4 kinase activity test (KinEASE-STK S1 HTRF kit); assay type: biochemical; details: 2.5 nM kinase, 1 μM biotinylated polypeptide substrate, 7 μM ATP, 37° C. 120 min
T1 sequence (Q9NWZ3 1-460): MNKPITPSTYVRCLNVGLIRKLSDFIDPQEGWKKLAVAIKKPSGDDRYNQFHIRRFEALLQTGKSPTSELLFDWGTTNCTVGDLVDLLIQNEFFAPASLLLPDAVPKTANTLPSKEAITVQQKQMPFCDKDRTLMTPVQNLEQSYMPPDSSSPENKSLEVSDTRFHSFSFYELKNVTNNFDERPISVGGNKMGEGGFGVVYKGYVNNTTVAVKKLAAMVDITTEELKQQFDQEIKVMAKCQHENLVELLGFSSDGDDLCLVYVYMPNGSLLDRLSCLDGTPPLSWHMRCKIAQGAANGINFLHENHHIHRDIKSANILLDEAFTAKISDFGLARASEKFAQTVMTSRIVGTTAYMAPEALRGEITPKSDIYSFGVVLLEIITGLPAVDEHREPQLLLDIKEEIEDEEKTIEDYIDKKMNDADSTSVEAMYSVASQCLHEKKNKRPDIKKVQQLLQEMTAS
Method: KinEASE-STK S1 serine/threonine kinase kit (Cisbio) was used to detect the inhibitory effect of the compound on IRAK4 kinase activity. The specific method was: the compound was dissolved in dimethyl sulfoxide, and then it was diluted with the buffer solution of the kit by equal gradient to make the final concentration range of the tested compound in the reaction system 10000 nM-0.038 nM, then 2.5 nM kinase, 1 μM biotinylated polypeptide substrate and 7 μM adenosine triphosphate (ATP) were added in sequence and incubated at 37° C. for 120 min. Subsequently, anti-phosphorylated serine/threonine antibody coupled with europium element compound and modified XL665 streptavidin were added to the reaction system to terminate the reaction. After incubating at room temperature for 1 h, the fluorescence intensity of each well at the emission wavelength of 620 nm and 665 nm and the excitation wavelength of 337 nm was determined in HTRF mode on the microplate reader EnVision(PerkinElmer), the ratio value was calculated using the formula Ratio=(665 nm/620 nm)×10^4. By comparing with the fluorescence intensity ratio of the control group, the inhibition rate of the compound at each concentration was calculated, and then the IC50 value of the compound was obtained by fitting the nonlinear curve with the logarithmic concentration-inhibition rate by GraphPad Prism 7.

[1] = target: T2, IRAK4 protein in THP-1 cells (Homo sapiens, UniProt Q9NWZ3); test: Degradation of IRAK4 in THP-1 cells (Western blot); assay type: cell-based; details: 24 hours, compound 1-3000 nM
T2 construct: endogenous in cells; host or cells: THP-1
T2 sequence (Q9NWZ3 1-460): T1 sequence (Q9NWZ3 1-460)
Method: Each well of the 24-well cell culture plate was inoculated with 0.95 mL THP-1 cells (stem cell bank of Chinese academy of sciences) with a cell density of 5×10^5 cells/well. The cell plate was placed in a 5% carbon dioxide incubator and cultured overnight at 37° C., then 50 μL compound in dimethyl sulfoxide was added. The final concentration of the compound was in the range of 1-3000 nM. After continuous cultivation for 24 hours, the cells were collected into a 1.5 mL centrifuge tube, centrifuged at 1000 rpm and 4° C. for 5 minutes. Cell precipitation was cleaned twice with 1-DPBS, resuspended cells were lysed with 200 μL lysate (cell lysate was Western and IP cell lysate (Beyotime), supplemented with 1 mM mixture of phenylmethylsulfonyl fluoride and protease inhibitor (Beyotime)), left on ice for 30 minutes, then centrifuged at 14000 g at 4° C. for 10 minutes, and the supernatant was taken to detect IRAK4 protein level by Western blot.
Western blot method: The total protein concentration in the supernatant of cell lysis was determined by BCA protein quantitative kit (Tiangen). According to the concentration of total protein detected by BCA, the supernatant was adjusted to 0.2 μg/μL with PBS and 5× SDS-PAGE protein loading buffer (Beyotime), bathed in water at 100° C. for 10 minutes, then placed in ice bath for 5 minutes, centrifuged at 14000 g and 4° C. for 5 minutes, and then collected as WB loading sample. Prefabricated glue (KeyGEN) was used for protein electrophoresis with a loading amount of 10 μL (total protein 2 μg). After Tris-MOPS-SDS electrophoresis solution (Adamas), 120V constant pressure electrophoresis was performed. After electrophoresis, the protein on the adhesive strip was transferred to PVDF membrane with a constant current of […] for 50 minutes. After the membrane was transferred, the membrane was placed in 1×QuickBlock blocking buffer (Beyotime) and incubated for 30 minutes at room temperature. After blocking, PVDF membranes were incubated with IRAK4 primary antibody (Abcam) overnight at 4°, the membranes were washed with TBST buffer (2.4 g Tris, 8.8 g NaCl, 1.5 mL Tween 20, pH adjusted to 7.4, constant volume to 1 L) for 30 minutes, incubated with secondary antibody (Abcam) for 2 hours at room temperature, finally incubated with Clarity Western ECL Substrate(BIO-RAD) for 5 minutes for luminescence development, chemiluminescence imaging system (Clinx, chemiScope 6200 Touch) for development and protein mapping photography. The protein map was analyzed by Clinx chemiluminescence analysis software for grayscale values. Using the formula: grayscale correction value=(target protein grayscale value/corresponding internal reference grayscale value)×10^3, the grayscale correction value of each sample was calculated. The degradation rate was calculated by comparing with the grayscale correction value of the control group. Furthermore, DC50 and Dmax values of the compound were obtained by the nonlinear curve fitting with the logarithmic concentration-inhibition rate by GraphPad Prism 7.

Row | pIC50 (IRAK4 kinase) | DC50 [1] | Dmax [1] | Compound
1 | 8.54 | 7.4 nM | 99.1% | COc1cc2nn(C3CCN(CCCN4CCC5(CC4)CCN(C(=O)c4ccc(OC)c(N6CCC(=O)NC6=O)c4)CC5)CC3)cc2cc1NC(=O)c1cccc(C(F)(F)F)n1 [Example 2, N-(2-(1-(3-(9-(3-(2,4-dioxotetrahydropyrimi-din-1 (2H)-yl)-4-methoxyben-zoyl)-3,9-diazaspiro [5.5]undec-3-yl)propyl)piperidin-4-yl)-6-methoxy-2H-indazol-5-yl)-6-(tri-fluoromethyl)-2-pyridine carboxamide]
2 | 8.57 | 23.1 nM | 90.5% | COc1cc2nn(C3CCN(CCCCN4CCC5(CC4)CCN(C(=O)c4ccc(OC)c(N6CCC(=O)NC6=O)c4)CC5)CC3)cc2cc1NC(=O)c1cccc(C(F)(F)F)n1 [Example 3]
3 | 8.12 | 24 nM | 91.7% | COc1cc2nn(C3CCN(CCC4CCN(C(=O)c5ccc(OC)c(N6CCC(=O)NC6=O)c5)CC4)CC3)cc2cc1NC(=O)c1cccc(C(F)(F)F)n1 [Example 6, N-(2-(1-(2-(1-(3-(2,4-dioxotetrahydropyrim-idin-1 (2H)-yl)-4-methoxyben-zoyl)piperidin-4-yl)ethyl)piperidin-4-yl)-6-me-thoxy-2H-indazol-5-yl)-6-(trifluoromethyl) pyridinecarboxamide]
4 | 8.23 | 9.4 nM | 95.5% | COc1ccc(C(=O)N2CCC(CCN3CCC(n4cc5cc(NC(=O)c6cccc(C(F)(F)F)n6)c(C(C)(C)O)cc5n4)CC3)CC2)cc1N1CCC(=O)NC1=O [Example 7, N-(2-(1-(2-(1-(3-(2,4-dioxotetrahydropyrimidin-1 (2H)-yl)-4-methoxybenzoyl)piperidin-4-yl)ethyl)piperidin-4-yl)-6-(2-hydroxyprop-2-yl)-2H-indazol-5-yl)-6-(trifluoromethyl) pyridinecarboxamide]
5 | 7.74 | 16.4 nM | 94.3% | COc1cc2nn(C3CCN(CCCCCN(C)C(=O)c4ccc(OC)c(N5CCC(=O)NC5=O)c4)CC3)cc2cc1NC(=O)c1cccc(C(F)(F)F)n1 [Example 9, N-(2-(1-(5-(3-(2,4-dioxotetrahydropyrimidin-1 (2H)-yl)-4-methoxy-N-methylbenzamido)pentyl)piperidin-4-yl)-6-methoxy-2H-indazol-5-yl)-6-(trifluoromethyl) pyridinecarboxamide]
6 | 8.19 | 2.3 nM | 100% | COc1ccc(C(=O)N2CCC3(CCN(CCN4CCC(n5cc6cc(NC(=O)c7cccc(C(F)(F)F)n7)c(C(C)(C)O)cc6n5)CC4)CC3)CC2)cc1N1CCC(=O)NC1=O [Example 10, N-(2-(1-(2-(9-(3-(2,4-dioxotetrahydropyrimidin-1 (2H)-yl)-4-methoxybenzoyl)-3,9-diazaspiro[5.5]undec-3-yl)ethyl)piperidin-4-yl)-6-(2-hydroxyprop-2-yl)-2H-indazol-5-yl)-6-(trifluoromethyl) pyridinecarboxamide]
7 | 8.22 | 27.7 nM | 99.6% | COc1ccc(C(=O)N2CCC3(CCN(CCCN4CCC(n5cc6cc(NC(=O)c7cccc(C(F)(F)F)n7)c(C(C)(C)O)cc6n5)CC4)CC3)CC2)cc1N1CCC(=O)NC1=O [Example 11]
8 | 8.10 | 1.4 nM | 96.9% | COc1ccc(C(=O)N2CCC3(CC2)CN(CCN2CCC(n4cc5cc(NC(=O)c6cccc(C(F)(F)F)n6)c(C(C)(C)O)cc5n4)CC2)C3)cc1N1CCC(=O)NC1=O [Example 12, N-(2-(1-(2-(7-(3-(2,4-dioxotetrahydropyrimidin-1 (2H)-yl)-4-methoxybenzoyl)-2,7-diazaspiro [3.5]non-2-yl)ethyl)piperidin-4-yl)-6-(2-hydroxyprop-2-yl)-2H-indazol-5-yl)-6-(trifluoro-methyl) pyridinecarboxamide]
9 | 8.04 | 7.1 nM | 99.4% | COc1cc2nn(C3CCN(CCN4CCC5(CC4)CCN(C(=O)c4ccc(Cl)c(N6CCC(=O)NC6=O)c4)CC5)CC3)cc2cc1NC(=O)c1cccc(C(F)(F)F)n1 [Example 16, N-(2-(1-(2-(9-(4-chloro-3-(2,4-dioxotetrahydro-pyrimidin-1 (2H)-yl)benzoyl)-3,9-diazaspiro[5.5]undec-3-yl)ethyl)piperidin-4-yl)-6-methoxy-2H-in-dazol-5-yl)-6-(tri-fluoromethyl) pyridinecarbox-amide]
10 | 8.10 | 5.3 nM | 96.9% | CC(C)(O)c1cc2nn(C3CCN(CCN4CCC5(CC4)CCN(C(=O)c4ccc(Cl)c(N6CCC(=O)NC6=O)c4)CC5)CC3)cc2cc1NC(=O)c1cccc(C(F)(F)F)n1 [Example 17, N-(2-(1-(2-(9-(4-chloro-3-(2,4-dioxotetrahydro-pyrimidin-1 (2H)-yl)benzoyl)-3,9-diazaspiro[5.5]undec-3-yl)ethyl)piperidin-4-yl)-6-(2-hydroxyprop-2-yl)-2H-indazol-5-yl)-6-(trifluoro-methyl) pyridinecarbox-amide]
11 | 8.02 | 7.1 nM | 99.4% | COc1cc2nn(C3CCN(CCCC4CCN(C(=O)c5ccc(OC)c(N6CCC(=O)NC6=O)c5)CC4)CC3)cc2cc1NC(=O)c1cccc(C(F)(F)F)n1 [Example 18, N-(2-(1-(3-(1-(3-(2,4-dioxotetrahydro-pyrimidin-1 (2H)-yl)-4-me-thoxybenzoyl)piperidin-4-yl)propyl)piperidin-4-yl)-6-methoxy-2H-in-dazol-5-yl)-6-(trifluorometh-yl) pyridinecarbox-amide]
12 | 7.77 | 13.4 nM | 92.8% | COc1cc2nn(C3CCN(CCCN4CCN(C(=O)c5ccc(OC)c(N6CCC(=O)NC6=O)c5)CC4)CC3)cc2cc1NC(=O)c1cccc(C(F)(F)F)n1 [Example 19, N-(2-(1-(3-(4-(3-(2,4-dioxotetrahydro-pyrimidin-1 (2H)-yl)-4-me-thoxybenzoyl)piperazin-1-yl)propyl)piperidin-4-yl)-6-methoxy-2H-in-dazol-5-yl)-6-(trifluorometh-yl) pyridinecarbox-amide]
13 | 8.02 | 12.2 nM | 93.7% | COc1cc2nn(C3CCN(CCOC4CCN(C(=O)c5ccc(OC)c(N6CCC(=O)NC6=O)c5)CC4)CC3)cc2cc1NC(=O)c1cccc(C(F)(F)F)n1 [Example 20]
